According to BindingDB's records for doi:10.1080/14756360903179351 (University of Tehran, 2010):
Values joined by “and” are separate entries in the source; they are usually repeats but may differ in a detail not shown here. Equal values may be shown once. Where a name gives a salt, the structure may show the parent alone.

Biological target: T1, Polyphenol oxidase 1 (White button mushroom, UniProt Q00024)
T1 sequence (Q00024 whole entry): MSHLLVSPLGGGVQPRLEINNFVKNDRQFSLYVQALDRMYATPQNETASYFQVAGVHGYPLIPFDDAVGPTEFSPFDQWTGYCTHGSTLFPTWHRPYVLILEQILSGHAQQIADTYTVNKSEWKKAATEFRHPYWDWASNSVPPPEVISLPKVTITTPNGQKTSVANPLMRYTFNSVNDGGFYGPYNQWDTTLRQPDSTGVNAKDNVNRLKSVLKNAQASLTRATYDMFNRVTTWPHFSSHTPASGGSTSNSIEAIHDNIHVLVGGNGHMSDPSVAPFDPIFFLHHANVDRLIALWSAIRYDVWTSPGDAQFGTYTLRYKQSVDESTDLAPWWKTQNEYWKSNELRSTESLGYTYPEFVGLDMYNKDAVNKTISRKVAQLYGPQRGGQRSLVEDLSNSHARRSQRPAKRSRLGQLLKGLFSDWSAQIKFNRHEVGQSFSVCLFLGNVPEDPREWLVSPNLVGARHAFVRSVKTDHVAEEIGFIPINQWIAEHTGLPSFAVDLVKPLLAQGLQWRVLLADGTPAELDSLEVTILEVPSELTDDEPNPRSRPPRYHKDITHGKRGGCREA
Test: MT Kinetic Assay
Details: pH 6.8
Protocol: The assay was performed as previously described with slight modifications [Chen et al., J. Agric. Food Chem., 50:4108-12]. The reaction medium was 1 mL in 50 mM phosphate buffer (pH 6.8). The final concentration of mushroom tyrosinase was 26.07 μg/mL for cresolase activity and 6.52 μg/mL for catecholase activity. Freshly prepared enzyme, substrate, and dithiocarbamates I and II were used in this work. The reaction was carried out under constant temperatures of 27 and 37°C. Substrate addition followed incubation of the enzyme with different concentrations of synthetic inhibitors.

| SMILES | Ki (27 °C) | Ki (37 °C) |
| --- | --- | --- |
| S=C(S)NCc1ccc(CNC(=S)S)cc1 [p-Xylidine-bis(dithiocarbamate) sodium salt (II)] | 0.64 µM and 0.29 µM | 0.95 µM and 1.05 µM |
| S=C(S)NCc1ccccc1 | 14.1 µM and 9.4 µM | 5.9 µM and 5.7 µM |
